In patent EP2276483B1, “SOLID FORMS COMPRISING (+)-2-[1-(3-ETHOXY-4-METHOXYPHENYL)-2-METHYLSULFONYLETHYL]-4-ACETYLAMINOISOINDOLINE-1,3-DIONE, COMPOSITIONS THEREOF, AND USES THEREOF” (CELGENE CORPORATION, priority 2008, dated 2009):

Columns and labels:
TNF-α = experiment: Human Whole Blood LPS-induced TNF-α assay; format: cell-based
Experimental: The ability of compounds to inhibit LPS-induced-TNF-α production by human whole blood was measured essentially as described below for the LPS-induced TNF-α assay in human PBMC, except that freshly drawn whole blood was used instead of PBMC.
Lipopolysaccharide (LPS) is an endotoxin produced by gram-negative bacteria such as E. coli which induces production of many pro-inflammatory cytokines, including TNF-α. In peripheral blood mononuclear cells (PBMC), the TNF-α produced in response to LPS is derived from monocytes, which comprise approximately 5-20% of the total PBMC. Compounds were tested for the ability to inhibit LPS-induced TNF-α production from human PBMC as previously described (Muller et al., 1996, J. Med. Chem., 39:3238). PBMC from normal donors were obtained by Ficoll Hypaque (Pharmacia, Piscataway, NJ, USA) density centrifugation. Cells were cultured in RPMI (Life Technologies, Grand Island, NY, USA) supplemented with 10% AB± human serum (Gemini Bio-products, Woodland, CA, USA), 2 mM L-glutamine, 100 U/ml penicillin, and 100 µg/ml streptomycin (Life Technologies).
PBMC (2 x 10^5 cells) were plated in 96-well flat-bottom Costar tissue culture plates (Coming, NY, USA) in triplicate. Cells were stimulated with LPS (Sigma, St. Louis, MO, USA) at 100 ng/ml in the absence or presence of compounds. […]

cAMP = experiment: PGE2-induced cAMP elevation in human neutrophils; format: cell-based; conditions: Neutrophil
Experimental: Prostaglandin E2 (PGE2) binds to prostanoid receptors on monocytes, T cells and other leukocytes and consequently elevates intracellular cAMP levels, resulting in inhibition of cellular responses. The combination of PGE2 and a PDE4 inhibitor synergistically elevates cAMP levels in these cell types, and the elevation of cAMP in PBMC caused by PDE4 inhibitors in the presence of PGE2 is proportional to the inhibitory activity of that PDE4 inhibitor. Intracellular cAMP was measured in human PBMC as follows. PBMC were isolated as described above and plated in 96-well plates at 1 x 10^6 cells per well in RPMI-1640. The cells were pre-treated with compounds at 100, 10, 1, 0.1, 0.01, and 0 µM in a final concentration of 2% DMSO in duplicate at 37°C in a humidified incubator at 5% CO2 for one hour. The cells were then stimulated with PGE2 (10µM) (Sigma) for 1h. The cells were lysed with HCl, 0.1 N final concentration to inhibit phosphodiesterase activity and the plates were frozen at -20°C. The cAMP produced was measured using cAMP (low pH) Immunoassay kit (R&D Systems).
Elevation of cAMP in human neutrophils was measured as follows. PBMC were removed from source leukocytes (Sera-Tec Biologicals) by centrifugation on Ficoll-Paque Plus (Amersham Pharmacia). […]

## CCOc1cc(C(CS(C)(=O)=O)N2C(=O)c3cccc(NC(C)=O)c3C2=O)ccc1OC (single isomer, unassigned; (+)) [Compound A, (+)-2-[1-(3-ethoxy-4-methoxyphenyl)-2-methylsulfonylethyl]-4-acetylaminoisoindoline-1,3-dione]
TNF-α
  IC50: 294 nM
cAMP
  EC50: 4570 nM
